Legend:
EGFR L858R/T790M/C797S = biological target: T1, EGFR L858R/T790M/C797S (Homo sapiens, UniProt P00533, C797S/L858R/T790M); experiment: EGFR degradation HTRF assay in BaF3-LTC cells; assay type: cell-based; settings: BaF3-LTC (L858R/T790M/C797S), maximum percentage of inhibition (degradation); read-out: BaF3-LTC Dmax (%)
T1 construct: expressed in transfected cells; host or cells: BaF3-LTC
How it was run: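 BaF3 cells expressing EGFR L858R/C797S or L858R/T790M/C797S treated 16 h at 37 °C with compounds (top 10 uM, 5-fold, 8 doses; 0.2% DMSO). Remaining EGFR quantified by HTRF in lysates after overnight antibody incubation. Degradation percentage versus DMSO controls; DC50 from four-parameter fit, Dmax as maximal degradation.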

EGFR L858R/C797S = biological target: T2, EGFR L858R/C797S (Homo sapiens, UniProt P00533, C797S/L858R); experiment: EGFR degradation HTRF assay in BaF3 LC cells; assay type: cell-based; settings: BaF3 LC (L858R/C797S), maximum percentage of inhibition (degradation); read-out: BaF3 LC Dmax (%)
T2 construct: expressed in transfected cells; host or cells: BaF3 LC
Description: BaF3-LTC(L858R/T790M/C797S) cells and BaF3 LC(L858R/C797S) cells are treated with compounds diluted in 0.2% DMSO cell culture medium and incubate for 16 h, 37° C., 5% CO2. the final concentration of compounds in all assay is start with 10 uM, 5-fold dilution, total 8 doses were included.
After 16 h treatment, add HTRF lysis buffer to each well; seal the plate and incubate 1 hour at room temperature on a plate shaker; Once the cells are lysed, 16 μL of cell lysate are transferred to a PE 384-well HTRF detection plate; 4 μL of pre-mixed HTRF antibodies are added to each well; Cover the plate with a plate sealer, spin 1000 rpm for 1 min, Incubate overnight at room temperature; Read on BMG PheraStar with HTRF protocol (337 nm-665 nm-620 nm).
The inhibition (degradation) percentage of the compound was calculated by the following equation: Inhibition percentage of Compound=100−100×(Signal−low control)/(High control−low control), wherein signal=each test compound group
High control=Cell group with added DMSO and without compound, indicating microplate readings without EGFR degradation;
Dmax is the maximum percentage of inhibition (degradation).
The IC50 (DC50) value of a compound can be obtained by fitting the following equation
Y=Bottom+(TOP−Bottom)/(1+((IC50/X)^hillslope))
Wherein, X and Y are known values, and IC50, Hillslope, Top and Bottom are the parameters obtained by fitting with software. Y is the inhibition percentage (calculated from the equation), X is the concentration of the compound; IC50 is the concentration of the compound when the 50% inhibition is reached. The smaller the IC50 value is, the stronger the inhibitory ability of the compound is. Vice versa, the higher the IC50 value is, the weaker the inhibitory ability of the compound is; Hillslope represents the slope of the fitted curve, generally around 1*; Bottom represents the minimum value of the curve obtained by data fitting, which is generally 0%±20%; Top represents the maximum value of the curve obtained by data fitting, which is generally 100%±20%. The experimental data were fitted by calculating and analyzing with Dotmatics data analysis software.

T2 sequence (P00533 25-1210 C797S/L858R): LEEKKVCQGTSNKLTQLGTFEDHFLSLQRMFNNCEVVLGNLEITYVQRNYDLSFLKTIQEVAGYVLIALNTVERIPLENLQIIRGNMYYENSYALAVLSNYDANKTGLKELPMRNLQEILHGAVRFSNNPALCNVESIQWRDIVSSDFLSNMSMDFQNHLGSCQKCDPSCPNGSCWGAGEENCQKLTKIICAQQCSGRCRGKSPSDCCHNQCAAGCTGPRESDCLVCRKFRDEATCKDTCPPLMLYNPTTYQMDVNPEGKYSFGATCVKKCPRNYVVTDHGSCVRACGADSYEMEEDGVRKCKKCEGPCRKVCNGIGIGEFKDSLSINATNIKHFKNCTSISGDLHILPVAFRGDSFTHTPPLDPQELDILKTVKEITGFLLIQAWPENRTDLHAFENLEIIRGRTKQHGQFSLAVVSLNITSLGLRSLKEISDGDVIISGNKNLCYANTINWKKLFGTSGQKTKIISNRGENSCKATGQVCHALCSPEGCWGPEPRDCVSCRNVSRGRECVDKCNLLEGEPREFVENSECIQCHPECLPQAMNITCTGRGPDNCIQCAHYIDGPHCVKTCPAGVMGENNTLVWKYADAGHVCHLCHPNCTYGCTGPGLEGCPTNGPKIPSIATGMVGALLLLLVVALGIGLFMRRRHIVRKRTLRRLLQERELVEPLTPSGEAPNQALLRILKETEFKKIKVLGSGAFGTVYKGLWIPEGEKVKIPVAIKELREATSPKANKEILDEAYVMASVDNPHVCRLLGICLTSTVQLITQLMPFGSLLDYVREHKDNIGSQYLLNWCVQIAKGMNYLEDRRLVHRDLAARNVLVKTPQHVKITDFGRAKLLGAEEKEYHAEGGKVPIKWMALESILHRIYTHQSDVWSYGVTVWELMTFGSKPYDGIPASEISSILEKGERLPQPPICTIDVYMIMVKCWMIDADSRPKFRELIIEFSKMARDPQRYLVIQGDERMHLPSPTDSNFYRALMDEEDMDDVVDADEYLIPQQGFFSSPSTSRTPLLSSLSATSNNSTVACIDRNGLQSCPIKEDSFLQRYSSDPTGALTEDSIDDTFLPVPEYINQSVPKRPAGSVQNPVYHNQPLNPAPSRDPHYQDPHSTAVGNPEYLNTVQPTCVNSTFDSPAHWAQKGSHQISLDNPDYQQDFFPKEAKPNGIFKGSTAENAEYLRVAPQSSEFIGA
T1 sequence (P00533 25-1210 T790M/C797S/L858R): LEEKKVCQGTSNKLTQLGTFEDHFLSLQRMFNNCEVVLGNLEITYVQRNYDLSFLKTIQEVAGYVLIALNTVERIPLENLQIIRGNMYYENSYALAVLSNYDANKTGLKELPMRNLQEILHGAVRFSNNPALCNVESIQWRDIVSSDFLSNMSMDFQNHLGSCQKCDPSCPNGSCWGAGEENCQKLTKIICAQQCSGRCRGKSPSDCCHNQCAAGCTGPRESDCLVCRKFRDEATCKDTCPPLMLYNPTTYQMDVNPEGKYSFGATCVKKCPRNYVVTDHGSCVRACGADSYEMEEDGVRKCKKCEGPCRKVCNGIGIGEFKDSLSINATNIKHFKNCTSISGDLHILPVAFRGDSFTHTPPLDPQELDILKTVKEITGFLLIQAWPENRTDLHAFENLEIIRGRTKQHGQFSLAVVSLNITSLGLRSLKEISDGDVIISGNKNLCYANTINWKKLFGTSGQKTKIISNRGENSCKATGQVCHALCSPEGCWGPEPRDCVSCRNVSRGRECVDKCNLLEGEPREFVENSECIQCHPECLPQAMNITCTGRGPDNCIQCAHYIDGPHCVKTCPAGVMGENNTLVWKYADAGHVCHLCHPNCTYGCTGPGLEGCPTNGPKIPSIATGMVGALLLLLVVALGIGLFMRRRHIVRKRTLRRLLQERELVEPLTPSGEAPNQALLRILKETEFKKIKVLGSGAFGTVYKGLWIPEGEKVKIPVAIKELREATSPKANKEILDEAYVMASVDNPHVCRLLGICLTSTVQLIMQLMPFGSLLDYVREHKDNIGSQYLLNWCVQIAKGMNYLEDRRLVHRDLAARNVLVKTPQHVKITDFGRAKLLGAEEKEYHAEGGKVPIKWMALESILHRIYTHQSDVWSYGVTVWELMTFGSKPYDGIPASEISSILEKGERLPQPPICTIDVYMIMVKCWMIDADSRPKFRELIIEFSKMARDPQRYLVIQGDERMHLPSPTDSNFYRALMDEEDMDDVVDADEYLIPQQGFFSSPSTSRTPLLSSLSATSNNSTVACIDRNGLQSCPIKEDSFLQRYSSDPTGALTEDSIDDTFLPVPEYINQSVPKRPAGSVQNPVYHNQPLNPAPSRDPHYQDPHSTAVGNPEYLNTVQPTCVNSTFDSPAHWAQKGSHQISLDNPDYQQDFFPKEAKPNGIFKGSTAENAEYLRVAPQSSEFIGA

| Compound | Dmax (EGFR L858R/T790M/C797S) [%] | Dmax (EGFR L858R/C797S) [%] |
| --- | --- | --- |
| CCOc1cc(N2CCC(N3CCN(CCc4c(F)ccc5c4n(CC)c(=O)n5C4CCC(=O)NC4=O)CC3)CC2)c(CC)cc1Nc1ncc(Br)c(Nc2ccc3c(=O)n(CC)ncc3c2P(C)(C)=O)n1 (stereo not drawn) [Example 559, 3-(4-(2-(4-(1-(4-((5-bromo-4-((5-(dimethylphosphoryl)-2-ethyl-1-oxo-1,2-dihydrophthalazin-6-yl)amino)pyrimidin-2-yl)amino)-5-ethoxy-2-ethylphenyl)piperidin-4-yl)piperazin-1-yl)ethyl)-3-ethyl-5-fluoro-2-oxo-2,3-dihydro-1H-benzo[d]imidazol-1-yl)piperidine-2,6-dione] | 92.4 | 90.4 |
| CCOc1cc(N2CCC(N3CCN(CCc4cccc5c4C4(CC4)C(=O)N5C4CCC(=O)NC4=O)CC3)CC2)c(CC)cc1Nc1ncc(Br)c(Nc2ccc3nc(CC)ccc3c2P(C)(C)=O)n1 (stereo not drawn) [Example 571, 3-(4′-(2-(4-(1-(4-((5-bromo-4-((5-(dimethylphosphoryl)-2-ethylquinolin-6-yl)amino)pyrimidin-2-yl)amino)-5-ethoxy-2-ethylphenyl)piperidin-4-yl)piperazin-1-yl)ethyl)-2′-oxospiro[cyclopropane-1,3′-indolin]-1′-yl)piperidine-2,6-dione] | 93.2 | 87.7 |
| CCOc1cc(N2CCC(N3CCN(CCc4cccc5c4C(C)(C)C(=O)N5C4CCC(=O)NC4=O)CC3)CC2)c(CC)cc1Nc1ncc(Br)c(Nc2ccc3nc(CC)ccc3c2P(C)(C)=O)n1 (stereo not drawn) [Example 572, 3-(4-(2-(4-(1-(4-((5-bromo-4-((5-(dimethylphosphoryl)-2-ethylquinolin-6-yl)amino)pyrimidin-2-yl)amino)-5-ethoxy-2-ethylphenyl)piperidin-4-yl)piperazin-1-yl)ethyl)-3,3-dimethyl-2-oxoindolin-1-yl)piperidine-2,6-dione] | 90.3 | 91.8 |
| CCc1cc(Nc2ncc(Br)c(Nc3ccc4nc(C)c(F)cc4c3P(C)(C)=O)n2)c(OC)cc1N1CCC(N2CCN(C(=O)[C@H]3CN(c4cc(F)c([C@H]5CCC(=O)NC5=O)c(F)c4)CC3(C)C)CC2)CC1 [Example 576, (R)-3-(4-((R)-4-(4-(1-(4-((5-bromo-4-((5-(dimethylphosphoryl)-3-fluoro-2-methylquinolin-6-yl)amino)pyrimidin-2-yl)amino)-2-ethyl-5-methoxyphenyl)piperidin-4-yl)piperazine-1-carbonyl)-3,3-dimethylpyrrolidin-1-yl)-2,6-difluorophenyl)piperidine-2,6-dione] | 92.2 | 95.9 |
| CCOc1cc(N2CCC(N3CCN(C(=O)[C@@H]4CCN(c5cc(F)c([C@H]6CCC(=O)NC6=O)c(F)c5)C4)CC3)CC2)c(CC)cc1Nc1ncc(Br)c(Nc2ccc3nc(C)c(F)cc3c2P(C)(C)=O)n1 [Example 577, (R)-3-(4-((R)-3-(4-(1-(4-((5-bromo-4-((5-(dimethylphosphoryl)-3-fluoro-2-methylquinolin-6-yl)amino)pyrimidin-2-yl)amino)-5-ethoxy-2-ethylphenyl)piperidin-4-yl)piperazine-1-carbonyl)pyrrolidin-1-yl)-2,6-difluorophenyl)piperidine-2,6-dione] | 88.6 | 89.1 |
| CCc1ccc2c(P(C)(C)=O)c(Nc3nc(Nc4cc(C)c(N5CCC(N6CCN(CCc7cccc8c7n(C)c(=O)n8C7CCC(=O)NC7=O)CC6)CC5)cc4OC4CC4)ncc3Br)ccc2n1 (stereo not drawn) [Example 584, 3-(4-(2-(4-(1-(4-((5-bromo-4-((5-(dimethylphosphoryl)-2-ethylquinolin-6-yl)amino)pyrimidin-2-yl)amino)-5-cyclopropoxy-2-methylphenyl)piperidin-4-yl)piperazin-1-yl)ethyl)-3-methyl-2-oxo-2,3-dihydro-1H-benzo[d]imidazol-1-yl)piperidine-2,6-dione] | 95.6 | 92.8 |

Source: patent US20230248834A1, “DEGRADATION OF (EGFR) BY CONJUGATION OF EGFR INHIBITORS WITH E3 LIGASE LIGAND AND METHODS OF USE” (BEIGENE, LTD., priority 2020, published 2023)
